Molecular target: H1047R PIK3CA enzyme (Homo sapiens, UniProt P42336, H1047R)
Experiment: ADP-Glo Biochemical PIK3CA Kinase Assay
Procedure: Compounds to be assayed were plated in 16 doses of 1:2 serial dilutions (20 nL volume each well) on a 1536-well plate, and the plate warmed to room temperature. PIK3CA enzyme (e.g. H1047R, E542K, E545K, or wild-type) (1 μL of 2 nM solution in Enzyme Assay Buffer (comprising 50 mM HEPES pH 7.4, 50 mM NaCl, 6 mM MgCl2, 5 mM DTT and 0.03% CHAPS)) was added and shaken for 10 seconds and preincubated for 30 minutes. To the well was added 1 μL of 200 μM ATP and 20 μM of diC8-PIP2 in Substrate Assay Buffer (50 mM HEPES pH7.4, 50 mM NaCl, 5 mM DTT and 0.03% CHAPS) to start the reaction, and the plate was shaken for 10 seconds, then spun briefly at 1500 rpm, and then incubated for 60 minutes at room temperature. The reaction was stopped by adding 2 μL of ADP-Glo reagent (Promega), and spinning briefly at 1500 rpm, and then incubating for 40 minutes. ADP-Glo Detection reagent (Promega) was added and the plate spun briefly at 1500 rpm, then incubated for 30 minutes.

H1047R PIK3CA enzyme, sequence (P42336 whole entry H1047R): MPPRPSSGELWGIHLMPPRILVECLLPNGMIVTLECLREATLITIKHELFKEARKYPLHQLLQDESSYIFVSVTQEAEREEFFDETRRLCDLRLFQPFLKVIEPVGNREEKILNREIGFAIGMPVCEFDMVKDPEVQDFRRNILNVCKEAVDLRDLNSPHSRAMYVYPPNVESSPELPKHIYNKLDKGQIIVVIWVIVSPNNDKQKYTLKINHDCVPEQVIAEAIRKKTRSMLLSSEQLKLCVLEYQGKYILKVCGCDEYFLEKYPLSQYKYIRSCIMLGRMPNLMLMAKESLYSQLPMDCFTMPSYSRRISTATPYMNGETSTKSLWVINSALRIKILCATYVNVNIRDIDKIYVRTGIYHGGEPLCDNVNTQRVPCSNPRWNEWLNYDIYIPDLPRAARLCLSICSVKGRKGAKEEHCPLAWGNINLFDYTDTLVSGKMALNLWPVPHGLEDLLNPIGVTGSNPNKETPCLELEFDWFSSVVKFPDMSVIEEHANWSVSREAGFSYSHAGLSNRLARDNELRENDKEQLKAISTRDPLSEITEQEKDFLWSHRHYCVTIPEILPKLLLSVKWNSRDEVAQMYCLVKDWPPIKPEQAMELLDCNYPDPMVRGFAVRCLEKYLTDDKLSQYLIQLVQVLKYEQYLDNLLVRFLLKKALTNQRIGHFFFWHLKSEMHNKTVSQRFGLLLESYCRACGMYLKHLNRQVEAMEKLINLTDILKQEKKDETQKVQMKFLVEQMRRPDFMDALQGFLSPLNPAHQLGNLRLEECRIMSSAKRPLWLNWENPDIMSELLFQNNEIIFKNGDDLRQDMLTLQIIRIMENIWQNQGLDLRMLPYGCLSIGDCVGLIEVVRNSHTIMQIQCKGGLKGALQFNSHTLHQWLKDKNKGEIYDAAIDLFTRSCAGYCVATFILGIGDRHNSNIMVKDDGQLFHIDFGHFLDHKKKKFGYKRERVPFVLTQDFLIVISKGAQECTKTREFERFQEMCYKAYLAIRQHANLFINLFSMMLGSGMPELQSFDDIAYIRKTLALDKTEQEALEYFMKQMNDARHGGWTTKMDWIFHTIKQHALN
H1047R PIK3CA enzyme, sequence (P27986 whole entry partner): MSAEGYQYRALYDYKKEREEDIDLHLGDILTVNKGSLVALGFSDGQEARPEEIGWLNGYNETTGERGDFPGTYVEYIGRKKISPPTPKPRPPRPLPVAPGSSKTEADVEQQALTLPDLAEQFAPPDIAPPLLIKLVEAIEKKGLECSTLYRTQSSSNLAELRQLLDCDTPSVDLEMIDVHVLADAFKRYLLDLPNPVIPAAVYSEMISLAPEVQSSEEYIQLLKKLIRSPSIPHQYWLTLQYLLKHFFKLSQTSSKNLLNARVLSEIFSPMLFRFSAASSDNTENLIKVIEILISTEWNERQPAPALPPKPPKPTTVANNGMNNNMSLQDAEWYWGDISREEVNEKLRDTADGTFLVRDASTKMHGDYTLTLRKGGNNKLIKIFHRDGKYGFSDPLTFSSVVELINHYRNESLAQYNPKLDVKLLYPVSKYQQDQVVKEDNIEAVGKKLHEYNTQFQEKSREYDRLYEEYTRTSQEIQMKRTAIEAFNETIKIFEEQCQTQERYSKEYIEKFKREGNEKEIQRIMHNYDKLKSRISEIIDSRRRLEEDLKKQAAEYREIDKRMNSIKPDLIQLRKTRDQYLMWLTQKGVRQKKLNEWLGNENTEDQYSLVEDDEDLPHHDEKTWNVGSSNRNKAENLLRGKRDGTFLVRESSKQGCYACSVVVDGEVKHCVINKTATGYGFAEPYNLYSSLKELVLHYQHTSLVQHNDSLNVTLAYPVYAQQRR

Cc1ccccc1Nc1ncc(CO)cc1NC(=O)c1cc(F)cc(C(F)(F)F)c1 [I-63] and Cc1ccccc1Nc1ncc(N)cc1NC(=O)c1cc(F)cc(C(F)(F)F)c1 [I-70] fall in the same range of IC50: 1 to 10 µM for the first, 1 to 10 µM for the second.

First: CNC(=O)c1cnc(Nc2ccccc2C)c(NC(=O)c2cccc(C(F)(F)F)c2)c1 [I-66]
Second: CNC(=O)c1cnc(Nc2ccccc2C)c(NC(=O)c2cccc(F)c2)c1 [I-143]
The IC50 of the first is lower: 1 to 10 µM for the first, 10 to 100 µM for the second. The first is the more potent here.

First: Cc1ccccc1Nc1ncc(C(=O)NS(C)(=O)=O)cc1NC(=O)c1cc(F)cc(C(F)(F)F)c1 [I-69]
Second: Cc1ccccc1Nc1ncc(C(=O)NCCO)cc1NC(=O)c1cc(F)cc(C(F)(F)F)c1 [I-86]
The IC50 of the first is higher: 10 to 100 µM for the first, 0.5 to 1 µM for the second.

Compared with CNc1ncc(-c2cnn(C)c2)cc1NC(=O)c1cc(F)cc(C(F)(F)F)c1 [I-71], Cc1ccccc1Nc1ncc(-c2cnn(CCO)c2)cc1NC(=O)c1cc(F)cc(C(F)(F)F)c1 [I-147] is lower in IC50: 10 to 100 µM for the first, 0.5 to 1 µM for the second.

Compared with Cc1ccccc1Nc1ncc(N2CC(N)C2)cc1NC(=O)c1cc(F)cc(C(F)(F)F)c1 [I-73], Cc1ccccc1Nc1ncc(NCC#N)cc1NC(=O)c1cc(F)cc(C(F)(F)F)c1 [I-155] is lower in IC50: 1 to 10 µM for the first, 0.5 to 1 µM for the second. The second is the more potent here.

Cc1ccccc1Nc1ncc(-c2ccn[nH]2)cc1NC(=O)c1cc(F)cc(C(F)(F)F)c1 [I-74] and Cc1ccccc1Nc1ncc(-c2cn[nH]c2)cc1NC(=O)c1cc(F)cc(C(F)(F)F)c1 [I-81] fall in the same range of IC50: 1 to 10 µM for the first, 1 to 10 µM for the second.

Cc1ccccc1Nc1ncc(-c2ccc(CNC(=O)OC(C)(C)C)cc2)cc1NC(=O)c1cc(F)cc(C(F)(F)F)c1 [I-76] and Cc1ccccc1Nc1ncc(-c2ccc(NC(=O)OC(C)(C)C)cc2)cc1NC(=O)c1cc(F)cc(C(F)(F)F)c1 [I-80] fall in the same range of IC50: 1 to 10 µM for the first, 1 to 10 µM for the second.

First: Cc1ccccc1Nc1ncc(-c2cccnc2)cc1NC(=O)c1cc(F)cc(C(F)(F)F)c1 [I-77]
Second: Cc1ccccc1Nc1ncc(-c2ccccc2C#N)cc1NC(=O)c1cc(F)cc(C(F)(F)F)c1 [I-83]
The IC50 of the first is higher: 1 to 10 µM for the first, 0.5 to 1 µM for the second. The second is the more potent here.

Cc1ccccc1Nc1ncc(-c2c(C)noc2C)cc1NC(=O)c1cc(F)cc(C(F)(F)F)c1 [I-78] and COCCn1cc(-c2cnc(Nc3ccccc3C)c(NC(=O)c3cc(F)cc(C(F)(F)F)c3)c2)cn1 [I-148] fall in the same range of IC50: 0.5 to 1 µM for the first, 0.5 to 1 µM for the second.

CNC(=O)c1cnc(Nc2ccccc2C)c(NCc2cc(F)cc(C(F)(F)F)c2)c1 [I-85] and CNC(=O)c1cnc(Nc2ccccc2C)c(NC(=O)Cc2cc(F)cc(F)c2)c1 [I-161] fall in the same range of IC50: 10 to 100 µM for the first, 10 to 100 µM for the second.

CNC(=O)c1cnc(Nc2ccccc2C)c(NC(=O)c2c[nH]c3ccccc23)c1 [I-87] and CNC(=O)c1cnc(Nc2ccccc2C)c(NC(=O)c2ccnc3ccccc23)c1 [I-157] fall in the same range of IC50: 10 to 100 µM for the first, 10 to 100 µM for the second.

Cc1ccccc1Nc1ncc(-c2cnn(C3CCOCC3)c2)cc1NC(=O)c1cc(F)cc(C(F)(F)F)c1 [I-88] and Cc1ccccc1Nc1ncc(-c2cnn(C3CCNCC3)c2)cc1NC(=O)c1cc(F)cc(C(F)(F)F)c1 [I-91] fall in the same range of IC50: 0.5 to 1 µM for the first, 0.5 to 1 µM for the second.

Cc1ccccc1Nc1ncc(-c2cnn(C)c2)cc1NC(=O)c1cccn2nccc12 [I-89] and Cc1ccccc1Nc1ncc(-c2cnn(C)c2)cc1NC(=O)c1cccc2c1cnn2C [I-100] fall in the same range of IC50: 10 to 100 µM for the first, 10 to 100 µM for the second.

Cc1ccccc1Nc1ncc(-c2cnn(C3CCN(C(=O)OC(C)(C)C)CC3)c2)cc1NC(=O)c1cc(F)cc(C(F)(F)F)c1 [I-90] and Cc1cc(F)cc(C(=O)Nc2cc(-c3cnn(C)c3)cnc2Nc2ccccc2C)c1 [I-95] fall in the same range of IC50: 1 to 10 µM for the first, 1 to 10 µM for the second.

Cc1ccccc1Nc1ncc(-c2cnn(C)c2)cc1NC(=O)N1CCOc2ccccc21 [I-92] and Cc1ccccc1Nc1ncc(-c2cnn(C)c2)cc1NC(=O)c1ccccc1C [I-127] fall in the same range of IC50: 10 to 100 µM for the first, 10 to 100 µM for the second.

Compared with COc1cc(F)cc(C(=O)Nc2cc(-c3cnn(C)c3)cnc2Nc2ccccc2C)c1 [I-94], Cc1ccccc1Nc1ncc(-c2cnn(C)c2)cc1NC(=O)c1cc(F)cc(Br)c1 [I-96] is lower in IC50: 10 to 100 µM for the first, 0.5 to 1 µM for the second.

Compared with Cc1ccccc1Nc1ncc(-c2cnn(C)c2)cc1NC(=O)c1cc(F)cc(Cl)c1 [I-97], Cc1ccccc1Nc1ncc(-c2cnn(C)c2)cc1NC(=O)c1cc(F)cc(F)c1 [I-101] is higher in IC50: 0.5 to 1 µM for the first, 1 to 10 µM for the second. The first is the more potent here.

Cc1ccccc1Nc1ncc(-c2cnn(C)c2)cc1NC(=O)c1ccnc2c1ccn2C [I-98] and Cc1ccccc1Nc1ncc(-c2cnn(C)c2)cc1NC(=O)c1cccc2nn(C)cc12 [I-112] fall in the same range of IC50: 10 to 100 µM for the first, 10 to 100 µM for the second.

Compared with Cc1ccccc1Nc1ncc(-c2cnn(C)c2)cc1NC(=O)c1cccc(Br)c1 [I-99], Cc1cccc(C(=O)Nc2cc(-c3cnn(C)c3)cnc2Nc2ccccc2C)c1 [I-115] is higher in IC50: 1 to 10 µM for the first, 10 to 100 µM for the second.

Cc1ccccc1Nc1ncc(-c2cnn(C)c2)cc1NC(=O)c1ccc(F)c(C(F)(F)F)c1 [I-102] and Cc1ccccc1Nc1ncc(-c2cnn(C)c2)cc1NC(=O)c1cccc(C(F)(F)F)c1 [I-110] fall in the same range of IC50: 1 to 10 µM for the first, 1 to 10 µM for the second.

Cc1ccccc1Nc1ncc(-c2cnn(C)c2)cc1NC(=O)c1ccc2cc[nH]c2c1 [I-103] and Cc1ccccc1Nc1ncc(-c2cnn(C)c2)cc1NC(=O)c1ccc2[nH]ncc2c1 [I-108] fall in the same range of IC50: 10 to 100 µM for the first, 10 to 100 µM for the second.

First: Cc1ccccc1Nc1ncc(-c2cnn(C)c2)cc1NC(=O)c1ccc(Cl)c(Cl)c1 [I-104]
Second: Cc1ccc(C(=O)Nc2cc(-c3cnn(C)c3)cnc2Nc2ccccc2C)cc1 [I-109]
The IC50 of the first is lower: 1 to 10 µM for the first, 10 to 100 µM for the second.

Cc1ccccc1Nc1ncc(-c2cnn(C)c2)cc1NC(=O)c1cccc2ccncc12 [I-105] and Cc1ccccc1Nc1ncc(-c2cnn(C)c2)cc1NC(=O)c1cccc2cnccc12 [I-119] fall in the same range of IC50: 10 to 100 µM for the first, 10 to 100 µM for the second.

Cc1ccccc1Nc1ncc(-c2cnn(C)c2)cc1NC(=O)c1ccc(C#N)cc1 [I-106] and Cc1ccccc1Nc1ncc(-c2cnn(C)c2)cc1NC(=O)c1cccc(C#N)c1 [I-116] fall in the same range of IC50: 10 to 100 µM for the first, 10 to 100 µM for the second.

Cc1ccccc1Nc1ncc(-c2cnn(C)c2)cc1NC(=O)c1ccccc1C(F)(F)F [I-107] and Cc1ccccc1Nc1ncc(-c2cnn(C)c2)cc1NC(=O)c1ccccc1OC(F)(F)F [I-111] fall in the same range of IC50: 10 to 100 µM for the first, 10 to 100 µM for the second.

Cc1ccccc1Nc1ncc(-c2cnn(C)c2)cc1NC(=O)c1cccc2ccccc12 [I-113] and Cc1ccccc1Nc1ncc(-c2cnn(C)c2)cc1NC(=O)c1cccc2cccnc12 [I-125] fall in the same range of IC50: 10 to 100 µM for the first, 10 to 100 µM for the second.

CC(=O)Nc1ccc(C(=O)Nc2cc(-c3cnn(C)c3)cnc2Nc2ccccc2C)cc1 [I-114] and COc1ccc(C(=O)Nc2cc(-c3cnn(C)c3)cnc2Nc2ccccc2C)cc1 [I-126] fall in the same range of IC50: 10 to 100 µM for the first, 10 to 100 µM for the second.

Cc1ccccc1Nc1ncc(-c2cnn(C)c2)cc1NC(=O)c1ccc(C(F)(F)F)cc1 [I-117] and Cc1ccccc1Nc1ncc(-c2cnn(C)c2)cc1NC(=O)c1ccc(OC(F)(F)F)cc1 [I-122] fall in the same range of IC50: 10 to 100 µM for the first, 10 to 100 µM for the second.

Cc1ccccc1Nc1ncc(-c2cnn(C)c2)cc1NC(=O)c1cccc(S(C)(=O)=O)c1 [I-118] and Cc1ccccc1Nc1ncc(-c2cnn(C)c2)cc1NC(=O)c1ccc(S(C)(=O)=O)cc1 [I-123] fall in the same range of IC50: 10 to 100 µM for the first, 10 to 100 µM for the second.

Cc1ccccc1Nc1ncc(-c2cnn(C)c2)cc1NC(=O)c1cccc(N(C)C)c1 [I-120] and COc1cccc(C(=O)Nc2cc(-c3cnn(C)c3)cnc2Nc2ccccc2C)c1 [I-124] fall in the same range of IC50: 10 to 100 µM for the first, 10 to 100 µM for the second.

Cc1ccccc1Nc1ncc(-c2cnn(C)c2)cc1NC(=O)c1cccc2cn(C)nc12 [I-121] and Cc1ccccc1Nc1ncc(-c2cnn(C)c2)cc1NC(=O)c1ccccc1O [I-130] fall in the same range of IC50: 10 to 100 µM for the first, 10 to 100 µM for the second.

Cc1ccccc1Nc1ncc(-c2cnn(C)c2)cc1NC(=O)c1ccccc1S(C)(=O)=O [I-128] and Cc1ccccc1Nc1ncc(-c2cnn(C)c2)cc1NC(=O)c1ccc(S(N)(=O)=O)cc1 [I-129] fall in the same range of IC50: 10 to 100 µM for the first, 10 to 100 µM for the second.

First: Cc1ccccc1Nc1ncc(-c2cnn(C)c2)cc1NC(=O)c1cc2ccccc2s1 [I-131]
Second: Cc1ccccc1Nc1ncc(-c2cnn(C)c2)cc1NC(=O)c1cc2ccccc2n1C [I-132]
The IC50 of the first is higher: 10 to 100 µM for the first, 1 to 10 µM for the second. The second is the more potent here.

O=C(Nc1cccnc1NCc1ccccc1)c1csc2ccccc12 [I-133] and COCCNc1ncccc1NC(=O)c1csc2ccccc12 [I-134] fall in the same range of IC50: 10 to 100 µM for the first, 10 to 100 µM for the second.

CNC(=O)c1cnc(Nc2ccccc2C)c(NC(=O)Cc2ccccc2Cl)c1 [I-140] and CCC(C(=O)Nc1cc(C(=O)NC)cnc1Nc1ccccc1C)c1ccccc1 (stereo not shown) [I-162] fall in the same range of IC50: 10 to 100 µM for the first, 10 to 100 µM for the second.

First: CNC(=O)c1cnc(Nc2ccccc2C)c(NC(=O)c2cc(F)cc(F)c2)c1 [I-141]
Second: CNC(=O)c1cnc(Nc2ccccc2C)c(NC(=O)Cc2c(F)ccc(F)c2F)c1 [I-164]
The IC50 of the first is lower: 1 to 10 µM for the first, 10 to 100 µM for the second. The first is the more potent here.

First: Cc1ccccc1Nc1ncc(-c2cnn(C)c2)cc1NC(=O)c1csc2ccc(Cl)cc12 [I-145]
Second: CNC(=O)c1cnc(Nc2ccccc2C)c(NC(=O)c2nn(C)c3ccccc23)c1 [I-158]
The IC50 of the first is lower: 1 to 10 µM for the first, 10 to 100 µM for the second.

CC(C)(C)OC(=O)N1CCC(Nc2ncccc2NC(=O)c2csc3ccccc23)CC1 [I-151] and O=C(Nc1cccnc1NC1CCNCC1)c1csc2ccccc12 [I-152] fall in the same range of IC50: 10 to 100 µM for the first, 10 to 100 µM for the second.

O=C(Nc1cccnc1NC1CCCCC1)c1csc2ccccc12 [I-153] and CNC(=O)c1cnc(Nc2ccccc2C)c(NC(=O)C2CCN(C(C)=O)CC2)c1 [I-163] fall in the same range of IC50: 10 to 100 µM for the first, 10 to 100 µM for the second.

Compared with Cc1ccccc1Nc1ncc(NC(=O)CC#N)cc1NC(=O)c1cc(F)cc(C(F)(F)F)c1 [I-154], CNC(=O)c1cnc(Nc2ccccc2C)c(NC(=O)C2(c3ccc(C)cc3)CC2)c1 [I-160] is higher in IC50: 1 to 10 µM for the first, 10 to 100 µM for the second.

CNC(=O)c1cnc(Nc2ccccc2C)c(NC(=O)[C@@H]2C[C@H]2c2ccccc2)c1 [I-165] and CNC(=O)c1cnc(Nc2ccccc2C)c(NC(=O)C(c2ccccc2)C(C)C)c1 (stereo not shown) [I-166] fall in the same range of IC50: 10 to 100 µM for the first, 10 to 100 µM for the second.
